The record followed here is US20230010958A1, “CANNABINOID AND LYCOPENE ANTI-INFLAMMATORY SYNERGISTIC COMBINATIONS” (LYCORED LTD., priority 2019, published 2023).

Bounds are passed on as bounds.

Data set [1] deals with nitric oxide (NO) production. Description: NO production assay in LPS-stimulated peritoneal macrophages (Griess reagent). It counts as cell-based, mice. Particulars: CBD alone, 0.05 µM to 50 µM (FIG. 1). Here is the method: Macrophage isolation and cell culture - Peritoneal macrophages were collected from the peritoneal cavity of 6-8-week-old male ICR mice (Harlan, Israel) given an intraperitoneal injection of 1.5 ml of thioglycollate broth (4%) 4 days before harvest. Peritoneal macrophages were washed three times with PBS and if needed a hypotonic lysis of erythrocytes was performed, yielding 90-95% purity. The macrophages were identified by fluorescence-activated cell sorting (FACS) analysis using FITC-conjugated rat antimouse F4/80 (MCA497F; Serotec, Oxford, England) by flow microfluorimetry on FACS (Becton Dickinson, Mountain View, CA). For each sample, 10,000 light scatter-gated viable cells were analyzed. […]
To the control groups, appropriate volumes of DMSO (0.1-0.2%) were added. The percent inhibition of each experimental group was calculated comparatively to the relevant and corresponding control.
NO production assay —NO levels in supernatants of cell cultures were determined by assaying nitrite levels using Griess reagent and sodium nitrite as a standard.
Peritoneal macrophages were incubated with the compounds 1 h before addition of LPS and cultured overnight. NO production was determined in the supernatant of the cultures and the % of inhibition from untreated macrophages was determined. […]

Data set [2] relates to Macrophages. Description: MTT cell viability assay with CBD. To be noted: increasing CBD concentrations (FIG. 2). In kind it is cell-based. As for the experimental part:
FIG. 2 includes a vertical bar graph showing the effect of CBD on cell viability. MTT assay was performed in the presence of increasing CBD concentrations.
The inventors initially examined the sole effect of cannabidiol (CBD) on nitric oxide (NO) production. Macrophages were stimulated, and NO production was examined in the presence of increasing CBD concentrations, ranging from 0.05 µM to 50 µM.
(In general: Tetrazolium dyes change colour on reduction, which living cells bring about.)

Data set [3] relates to nitric oxide (NO). Description: NO production in bone marrow derived macrophages treated with an inflammatory stimulus (lycopene, CBDA). It counts as cell-based. To be noted: CBDA alone, 2.5 µM, 5 µM, 10 µM (FIG. 8A). As for the experimental part: Bone marrow derived macrophages were treated with an inflammatory stimulus in the presence of various concentration of lycopene, cannabidiolic acid (CBDA), tomato extract and hemp extract in vitro. As an inflammatory outcome, nitric oxide (NO) was monitored.
Full Study with test material and benchmarks - Cells were treated with tomato and hemp extract for 24 hours to determine viability. Cells were then treated as follows; (1) medium alone (unstimulated control), (2) LPS stimulation- 10 µg/mL, (3) each crude extracts (Tomato/Hemp) at concentration of IC50, (4) LPS + crude extracts, (5) control inhibitor, and (6) LPS + control inhibitor. The tomato and hemp extract and benchmarks (lycopene, CBDA) were tested in 5 different rations; 1:10, 1:5, 1:1, 5:1, 10:1.
Nitric oxide production was determined for each treatment.

In the case of `C=C(C)[C@@H]1CCC(C)=C[C@H]1c1c(O)cc(CCCCC)cc1O` [CBD, 2-[(6R)-3-Methyl-6-prop-l-en-2-yl-lcyclohex-2-envyl]-5pentylbenzene-l,3-diol], the “% of NO production inhibition” value in data set [1] is “increased in a CBD dose-dependent manner”. Also, the “CBD concentration toxic to the cells (cell viability, MTT)” value in data set [2] is recorded as at least 25 µM.

In the case of `C=C(C)[C@@H]1CCC(C)=C[C@H]1c1c(O)cc(CCCCC)c(C(=O)O)c1O` [CBDA, cannabidiolic acid], the “inhibition of NO production” value in data set [3] is on record as “inhibits NO production in a dose dependent manner”.
